System: T1, trypsin-like protease (trypsin) from Litopenaeus vannamei
T1 construct: native, purified from hepatopancreas (ammonium sulfate, Q-Sepharose FF); single band about 33 kDa on SDS-PAGE
Experiment: absorbance at […] nm, Lineweaver-Burk plot
Format: biochemical, Penaeus vannamei
Conditions: 20 mM Tris-HCl pH 8.0, 37 °C, 20 min, 0.4-2.4 mM substrate; untreated control (no cold plasma)

Km: 4.16 ± 0.01 mM
SMILES: N=C(N)NCCCC(NC(=O)c1ccccc1)C(=O)Nc1ccc([N+](=O)[O-])cc1 (racemic) [BAPNA]
